Source: patent US11325899B2, “Benzofurane and benzothiophene derivatives as PGE2 receptor modulators” (IDORSIA PHARMACEUTICALS LTD, priority 2017, dated 2022)

Tests used:
Type in all cases: cell-based
PTGER4 (EP4) = biological target: T1, PTGER4 (EP4) (Homo sapiens, UniProt P35408); assay: hEP4 b-arrestin assay (PathHunter HEK 293 PTGER4 b-arrestin cells); conditions: antagonistic activity, beta-arrestin assay; read-out: hEP4 b-arr IC50
T1 construct: host or cells: HEK 293 (PathHunter PTGER4 b-arrestin cell line)
T1 sequence (P35408 whole entry): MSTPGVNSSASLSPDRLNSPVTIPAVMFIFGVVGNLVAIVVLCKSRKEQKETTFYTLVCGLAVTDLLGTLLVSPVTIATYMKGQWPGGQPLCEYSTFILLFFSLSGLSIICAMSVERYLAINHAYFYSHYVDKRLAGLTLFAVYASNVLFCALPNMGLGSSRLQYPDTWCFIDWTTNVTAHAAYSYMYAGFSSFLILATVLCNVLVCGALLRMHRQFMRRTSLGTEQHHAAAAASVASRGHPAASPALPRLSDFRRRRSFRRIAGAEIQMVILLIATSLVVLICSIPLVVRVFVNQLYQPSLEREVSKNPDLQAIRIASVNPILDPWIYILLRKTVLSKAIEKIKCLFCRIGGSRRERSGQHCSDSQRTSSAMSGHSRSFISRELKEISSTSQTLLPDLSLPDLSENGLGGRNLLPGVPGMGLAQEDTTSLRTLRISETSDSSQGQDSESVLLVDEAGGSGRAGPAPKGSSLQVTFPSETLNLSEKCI
Procedure, shortened: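 PathHunter HEK 293 cells expressing ProLink-tagged human EP4 and EA-β-arrestin 2, seeded 24 h before. Compounds (10 μM–2 nM or 1 μM–0.2 nM) preincubated 15 min at 37 °C, then 20 nM PGE2 (EC80) for 120 min at 37 °C. β-gal complementation luminescence read; IC50 from duplicate dose-response curves versus DMSO control.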

PTGER2 (EP2) = biological target: T2, PTGER2 (EP2) (Homo sapiens, UniProt P43116); assay: hEP2 b-arrestin assay (PathHunter HEK 293 PTGER2 b-arrestin cells); conditions: antagonistic activity, beta-arrestin assay; read-out: hEP2 b-arr IC50
T2 construct: host or cells: HEK 293 (PathHunter PTGER2 b-arrestin cell line)
T2 sequence (P43116 whole entry): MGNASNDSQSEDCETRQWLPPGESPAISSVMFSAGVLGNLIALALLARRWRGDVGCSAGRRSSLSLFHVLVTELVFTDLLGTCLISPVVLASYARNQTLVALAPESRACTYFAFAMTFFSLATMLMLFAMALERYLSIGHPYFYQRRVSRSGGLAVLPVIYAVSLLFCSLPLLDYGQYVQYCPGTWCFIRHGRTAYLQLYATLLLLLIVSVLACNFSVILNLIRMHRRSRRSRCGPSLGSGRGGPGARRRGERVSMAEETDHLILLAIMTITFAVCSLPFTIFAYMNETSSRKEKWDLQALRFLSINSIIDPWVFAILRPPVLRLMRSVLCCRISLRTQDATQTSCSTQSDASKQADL
Procedure, shortened: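 PathHunter HEK293 cells with ProLink-tagged EP2 and EA-β-arrestin 2 preincubated 15 min at 37 °C with compound (10 μM-2 nM or 1 μM-0.2 nM), then stimulated 120 min with 5 μM PGE2 (EC80). β-gal complementation read by chemiluminescence; IC50 from duplicate dose-response versus DMSO.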

EP2 receptor = biological target: T3, EP2 receptor (Homo sapiens, UniProt P43116); assay: hEP2 cAMP assay (SF295 glioblastoma cells, HTRF cAMP, PGE2 stimulation); conditions: antagonistic activity
T3 construct: SF295 glioblastoma cells express high endogenous EP2 and no EP4; host or cells: SF295 glioblastoma cells
T3 sequence (P43116 whole entry): as above
Procedure, shortened: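 SF295 glioblastoma cells with endogenous EP2 and no EP4, in HBSS/HEPES/BSA with 2 mM IBMX, pre-incubated 45 min at room temperature with compound, then stimulated 30 min with 75 nM PGE2 (EC80). cAMP measured by HTRF; IC50 fitted from duplicate % cAMP versus DMSO control.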

SMILES | IC50 (PTGER4 (EP4)) [nM] | IC50 (PTGER2 (EP2)) [nM] | IC50 (EP2 receptor) [nM]
Cc1sc2c(C)cc(F)cc2c1CCNc1cc(-c2ccc(C(=O)O)c(O)c2)ncn1 [Example 10, 4-{6-[2-(5-Fluoro-2,7-dimethyl-benzo[b]thiophen-3-yl)-ethylamino]-pyrimidin-4-yl}-2-hydroxy-benzoic acid] | 1040 | 58 | 32
CCOc1cc(-c2cc(NCCc3c(C)sc4c(C)cc(F)cc34)ncn2)ccc1C(=O)C(=O)O [Example 189, (2-Ethoxy-4-{6-[2-(5-fluoro-2,7-dimethyl-benzo[b]thiophen-3-yl)-ethylamino]-pyrimidin-4-yl}-phenyl)-oxo-acetic acid] | 92 | 20 | 27
O=C(O)c1ccc(-c2cc(NCCc3csc4ccccc34)ncn2)cc1OC1CCC1 [Example 132, 4-[6-(2-Benzo[b]thiophen-3-yl-ethylamino)-pyrimidin-4-yl]-2-cyclobutoxy-benzoic acid] | 561 | 58 | 167
COc1cc(Cl)cc2c(CCNc3cc(-c4cc(F)c(C(=O)O)c(OC5CCC5)c4)ncn3)c(C)oc12 [Example 151, 4-{6-[2-(5-Chloro-7-methoxy-2-methyl-benzofuran-3-yl)-ethylamino]-pyrimidin-4-yl}-2-cyclobutoxy-6-fluoro-benzoic acid] | 163 | 60 | 95
CCOc1cc(-c2cc(NCCc3c(C)sc4c(C)cccc34)ncn2)ccc1CC(=O)O [Example 109, (4-{6-[2-(2,7-Dimethyl-benzo[b]thiophen-3-yl)-ethylamino]-pyrimidin-4-yl}-2-ethoxy-phenyl)-acetic acid] | 405 | 24 | 95
Cc1sc2c(C)cccc2c1CCNc1cc(-c2ccc(C(=O)O)c(SC3CCC3)c2)ncn1 [Example 130, 2-Cyclobutylsulfanyl-4-{6-[2-(2,7-dimethyl-benzo[b]thiophen-3-yl)-ethylamino]-pyrimidin-4-yl}-benzoic acid] | 193 | 12 | 20
CCOc1cc(-c2cc(NCCc3c(C)sc4c(OC)ccc(F)c34)ncn2)ccc1CC(=O)O [Example 105, (2-Ethoxy-4-{6-[2-(4-fluoro-7-methoxy-2-methyl-benzo[b]thiophen-3-yl)-ethylamino]-pyrimidin-4-yl}-phenyl)-acetic acid] | 58 | 33 | 157
CCOc1cc(-c2cc(NCCc3c(C)sc4c(C)cc(F)cc34)ncn2)sc1C(=O)NS(N)(=O)=O [Example 156, 3-Ethoxy-5-(6-((2-(5-fluoro-2,7-dimethylbenzo[b]thiophen-3-yl)ethyl)amino)pyrimidin-4-yl)-N-sulfamoylthiophene-2-carboxamide] | 26 | 5 | 10
CCCOc1cc(-c2cc(NCCc3c(C#N)sc4c(C)cc(F)cc34)ncn2)ccc1CC(=O)O [Example 169, (4-{6-[2-(2-Cyano-5-fluoro-7-methyl-benzo[b]thiophen-3-yl)-ethylamino]-pyrimidin-4-yl}-2-propoxy-phenyl)-acetic acid] | 100 | 30 | 142
COc1ccc(F)c2c(CCNc3cc(-c4cc(F)c(C(=O)O)c(OC5CCC5)c4)ncn3)c(C)sc12 [Example 149, 2-Cyclobutoxy-6-fluoro-4-{6-[2-(4-fluoro-7-methoxy-2-methyl-benzo[b]thiophen-3-yl)-ethylamino]-pyrimidin-4-yl}-benzoic acid] | 67 | 13 | 114
CCOc1nc(-c2cc(NCCc3c(C)sc4c(C)cc(F)cc34)ncn2)sc1C(=O)O [Example 160, 4-Ethoxy-2-{6-[2-(5-fluoro-2,7-dimethyl-benzo[b]thiophen-3-yl)-ethylamino]-pyrimidin-4-yl}-thiazole-5-carboxylic acid] | 16 | 15 | 10
CCOc1cc(-c2cc(NCCc3c(C#N)sc4c(C)cc(F)cc34)ncn2)cc(F)c1CC(=O)O [Example 165, (4-{6-[2-(2-Cyano-5-fluoro-7-methyl-benzo[b]thiophen-3-yl)-ethylamino]-pyrimidin-4-yl}-2-ethoxy-6-fluoro-phenyl)-acetic acid] | 54 | 28 | 129
CCCCOc1cc(-c2cc(NCCc3c(C)sc4c(C)cc(F)cc34)ncn2)ccc1C(=O)O [Example 127, 2-Butoxy-4-{6-[2-(5-fluoro-2,7-dimethyl-benzo[b]thiophen-3-yl)-ethylamino]-pyrimidin-4-yl}-benzoic acid] | 225 | 16 | 106
COc1ccc(F)c2c(CCNc3cc(-c4ccc(C(=O)O)c(OC5CCC5)c4)ncn3)c(C)sc12 [Example 134, 2-Cyclobutoxy-4-{6-[2-(4-fluoro-7-methoxy-2-methyl-benzo[b]thiophen-3-yl)-ethylamino]-pyrimidin-4-yl}-benzoic acid] | 893 | 27 | 46
COc1cc(F)c(F)c2c(CCNc3cc(-c4cc(F)c(C(=O)O)c(OC5CCC5)c4)ncn3)c(C)oc12 [Example 150, 2-Cyclobutoxy-4-{6-[2-(4,5-difluoro-7-methoxy-2-methyl-benzofuran-3-yl)-ethylamino]-pyrimidin-4-yl}-6-fluoro-benzoic acid] | 363 | 109 | 97
COc1ccc(F)c2c(CCNc3cc(-c4ccc(C(=O)O)c(OC5CCC5)c4F)ncn3)c(C)sc12 [Example 146, 2-Cyclobutoxy-3-fluoro-4-{6-[2-(4-fluoro-7-methoxy-2-methyl-benzo[b]thiophen-3-yl)-ethylamino]-pyrimidin-4-yl}-benzoic acid] | 357 | 47 | 47

More lines, now with the values ahead:

IC50 (PTGER4 (EP4)) [nM] | IC50 (PTGER2 (EP2)) [nM] | IC50 (EP2 receptor) [nM] | SMILES
161 | 36 | 48 | CCOc1cc(-c2cc(NCCc3c(C#N)sc4c(C)cc(F)cc34)ncn2)ccc1CC(=O)O [Example 104, (4-{6-[2-(2-Cyano-5-fluoro-7-methyl-benzo[b]thiophen-3-yl)-ethylamino]-pyrimidin-4-yl}-2-ethoxy-phenyl)-acetic acid]
166 | 40 | 50 | Cc1cc(F)cc2c(CCNc3cc(-c4ccc(C(=O)O)c(OC(C)C)c4)ncn3)c(C#N)sc12 [Example 172, 4-{6-[2-(2-Cyano-5-fluoro-7-methyl-benzo[b]thiophen-3-yl)-ethylamino]-pyrimidin-4-yl}-2-isopropoxy-benzoic acid]
164 | 41 | 617 | Cc1sc2c(C)cc(F)cc2c1CCNc1cc(-c2ccc(CC(=O)O)c(CC(C)C)c2)ncn1 [Example 182, (4-{6-[2-(5-Fluoro-2,7-dimethyl-benzo[b]thiophen-3-yl)-ethylamino]-pyrimidin-4-yl}-2-isobutyl-phenyl)-acetic acid]
157 | 46 | 212 | COc1ccc(Cl)c2c(CCNc3cc(-c4ccc(C(=O)O)c(OC5CCCC5)c4)ncn3)c(C)sc12 [Example 153, 4-{6-[2-(4-Chloro-7-methoxy-2-methyl-benzo[b]thiophen-3-yl)-ethylamino]-pyrimidin-4-yl}-2-cyclopentyloxy-benzoic acid]
208 | 16 | 8 | Cc1sc2c(C)cc(F)cc2c1CCNc1cc(-c2ccc(C(=O)O)c(OC(F)F)c2)ncn1 [Example 115, 2-Difluoromethoxy-4-{6-[2-(5-fluoro-2,7-dimethyl-benzo[b]thiophen-3-yl)-ethylamino]-pyrimidin-4-yl}-benzoic acid]
75 | 27 | 155 | CCOc1cc(-c2cc(NCCc3c(C)oc4c(OC)cc(Cl)cc34)ncn2)ccc1OCC(=O)O [Example 121, (4-{6-[2-(5-Chloro-7-methoxy-2-methyl-benzofuran-3-yl)-ethylamino]-pyrimidin-4-yl}-2-ethoxy-phenoxy)-acetic acid]
505 | 22 | 85 | CCCOc1cc(-c2cc(NCCc3c(C)sc4c(OC)ccc(Cl)c34)ncn2)ccc1C(=O)O [Example 101, 4-{6-[2-(4-Chloro-7-methoxy-2-methyl-benzo[b]thiophen-3-yl)-ethylamino]-pyrimidin-4-yl}-2-propoxy-benzoic acid]
63 | 52 | 86 | CCOc1cc(-c2cc(NCCc3c(C)sc4c(C)cc(F)cc34)ncn2)ccc1OCCC(=O)O [Example 143, 3-(2-Ethoxy-4-{6-[2-(5-fluoro-2,7-dimethyl-benzo[b]thiophen-3-yl)-ethylamino]-pyrimidin-4-yl}-phenoxy)-propionic acid]
16 | 20 | 121 | CCOc1cc(-c2cc(NCCc3c(C)sc4c(C)cc(F)cc34)ncn2)sc1/C=C/C(=O)O [Example 96, (E)-3-(3-Ethoxy-5-{6-[2-(5-fluoro-2,7-dimethyl-benzo[b]thiophen-3-yl)-ethylamino]-pyrimidin-4-yl}-thiophen-2-yl)-acrylic acid]
